The target in experiment [1] is T1, Thymidylate synthase (Lactobacillus casei, UniProt P00469).
T1 sequence (P00469 whole entry): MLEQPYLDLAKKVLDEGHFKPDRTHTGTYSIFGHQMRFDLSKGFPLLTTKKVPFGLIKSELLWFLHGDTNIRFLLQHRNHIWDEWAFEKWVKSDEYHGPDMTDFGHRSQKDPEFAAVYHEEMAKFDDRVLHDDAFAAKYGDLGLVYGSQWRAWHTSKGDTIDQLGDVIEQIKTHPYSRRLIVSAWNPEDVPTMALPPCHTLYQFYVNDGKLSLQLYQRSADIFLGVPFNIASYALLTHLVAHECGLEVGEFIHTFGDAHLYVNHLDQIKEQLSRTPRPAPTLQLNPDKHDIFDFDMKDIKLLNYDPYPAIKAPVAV
Description: Compound was evaluated for the inhibition at a given concentration against Lactobacillus casei Thymidylate synthase. Details: species or system Lacticaseibacillus casei.

Experiment [2] has as its target T2, Thymidylate synthase (Homo sapiens, UniProt P04818). Kind of experiment: Compound was evaluated for the inhibition at a given concentration against recombinant human Thymidylate synthase.
Experiment [3] addresses T2, Thymidylate synthase. Description: Compound was evaluated for the inhibition at a given concentration against recombinant human TS.
The target in experiment [4] is T1, Thymidylate synthase. Description: Compound was evaluated for the inhibition at a given concentration against Lactobacillus casei TS. The arrangement: species or system Lacticaseibacillus casei.

SMILES strings stand for the structures.

T2 sequence (P04818 whole entry): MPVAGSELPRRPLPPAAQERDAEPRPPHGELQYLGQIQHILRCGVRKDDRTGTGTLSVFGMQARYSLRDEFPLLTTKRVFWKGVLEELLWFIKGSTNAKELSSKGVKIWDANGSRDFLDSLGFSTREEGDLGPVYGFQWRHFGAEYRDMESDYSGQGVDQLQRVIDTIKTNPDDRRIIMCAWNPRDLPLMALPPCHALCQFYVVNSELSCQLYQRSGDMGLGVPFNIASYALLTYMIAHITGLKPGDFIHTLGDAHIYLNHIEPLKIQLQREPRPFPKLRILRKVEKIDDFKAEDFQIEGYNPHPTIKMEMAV

In the case of `Cc1[nH]c2nc(N)[nH]c(=O)c2c1Sc1ccc(C(=O)NC(CCC(=O)O)C(=O)O)cc1` (configuration not stated), the IC50 against Thymidylate synthase [1] was 0.021 µM. Consider `Cc1[nH]c2nc(N)[nH]c(=O)c2c1CNCc1ccc(C(=O)N[C@H](CCC(=O)O)C(=O)O)cc1`, for which the midpoint of inhibition against Thymidylate synthase [1], the IC50, lay at 360 µM. Turning to `Cc1[nH]c2nc(N)nc(O)c2c1CSc1ccncc1`, the IC50 on Thymidylate synthase [2] was greater than 25 µM; against Thymidylate synthase [1] it was greater than 26 µM. On to `Cc1[nH]c2nc(N)nc(O)c2c1CNc1ccc(C(=O)N[C@H](CCC(=O)O)C(=O)O)cc1`, for which the IC50 on Thymidylate synthase [3] and on Thymidylate synthase [4] was 180 µM each time. For the compound `C#CCN(Cc1c(C)[nH]c2nc(N)nc(O)c12)c1ccc(C(=O)N[C@H](CCC(=O)O)C(=O)O)cc1`, the IC50 against Thymidylate synthase [1] was 90 µM.
